Tests used:
Assay type in all cases: cell-based
[1] = Cellular toxicity assay in HepG2 cells; settings: human, read-out: Cytotoxicity
Summary of the method: (§1)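 Compound toxicity was tested in cultured cells, with cycloheximide as positive cytotoxic control and solvent-exposed untreated cells as negative control. Cytotoxicity IC50 came from the concentration-response curve by the median effective method.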

Vero = assay: Cellular toxicity assay in Vero cells; settings: read-out: Cytotoxicity
Summary of the method: as §1

[2] = Cellular toxicity assay in Vero cells; settings: African green monkey, read-out: Cytotoxicity
Summary of the method: as §1

human PBM = assay: Cellular toxicity assay in human PBM cells; settings: read-out: Cytotoxicity
Summary of the method: as §1

[3] = Cellular toxicity assay in human PBM cells; settings: human, human PBM cells, read-out: Cytotoxicity
Summary of the method: as §1

wild type HBV = assay: Anti-HBV assay in AD-38 cell line; settings: Hepatitis B virus; AD-38 cells, HBV in culture supernatant; read-out: Anti-HBV activity EC50
HBV e antigen (HBeAg) = assay: HBeAg ELISA in HepAD38 cells (cccDNA-dependent marker)
Experimental: Production of secreted HBeAg is predominantly cccDNA-dependent in HepAD38 cells and therefore can serve as a surrogate marker for cccDNA (Ladner, S. K., Otto, M. J., Barker, C. S., Zaifert, K., Wang, G. H., Guo, J. T., Seeger, C., King, R. W. Antimicrob Agents Chemother 1997, 41, 1715-1720; Zhou T, Guo H, Guo J T, Cuconati A, Mehta A, Block T M. Antiviral Res. 2006; 72 (2): 116-24.). The effect on the levels of cccDNA formation was assessed using a cell-based assay that measures HBV e antigen (HBeAg) as a cccDNA-dependent marker in the HepAD38 system. HepAD38 cells were seeded at 50,000 cells/well in collagen-coated 96-well plates with DMEM/F12 medium (Life Technologies) supplemented with 10% heat-inactivated fetal bovine serum. Cells were treated with 0.3 μg/ml tetracycline as needed. Test compounds and controls were added to cells to a final concentration of 10 μM or in a dose response manner ranging from 0.001 to 10 μM. Medium and test compounds were replenished every 5 days in culture. Supernatants were harvested at day-14, clarified by centrifugation at 5000 rpm for 5 min, and stored at −70° C. until use. ELISA—Culture medium was diluted 1:15 in DMEM/F12 and the levels of HBeAg secreted in the culture medium were measured by using HBeAg ELISA kit (BioChain Institute Inc. Hayward, Calif.) according to the manufacturer's protocol. The concentration of compound that reduced levels of secreted HBeAg by 50% (EC50) was determined by linear regression.

O=C(Nc1ccc(F)c(F)c1)c1cc(S(=O)(=O)NCc2cn(C3CC3)nn2)ccc1F [Compound 13, 5-(N-((1-Cyclopropyl-1H-1,2,3-triazol-4-yl)methyl)sulfamoyl)-N-(3,4-difluorophenyl)-2-fluorobenzamide]
CC50 [1]: > 100 µM
CC50 (Vero): 66 µM
CC50 [2]: 55.6 µM
CC50 (human PBM): 64.8 µM
CC50 [3]: > 100 µM
EC50 (wild type HBV): 0.1 to 0.9 µM
Anti-HBeAg activity, percentage in brackets under EC50 (HBV e antigen (HBeAg); HepAD38 cells, day 14, concentration not printed in the table (method: 10 μM)): (86%)
EC50 (HBV e antigen (HBeAg); Hepatitis B virus, HePAD38, 336 h, read-out: Anti-HBeAg activity EC50): < 10 µM
